This is an account of results in patent US20140357563A1, “Compositions and Methods for the Generation of Activated Protein C and Methods of Use Thereof” (The Children's Hospital of Philadelphia, priority 2011, published 2014).

Entries after “also recorded” stand apart in the source; their conditions may differ. Where only a bound is given, the exact number is not on record here.

Data set [1] deals with thrombin (IIa)/thrombomodulin (TM) complex, TM+CS. In words: In vitro aPC generation assay in solution, IIa/TM complex with TM containing chondroitin sulfate side chains (TM+CS, TMCS). The data set is classed as biochemical, rabbit or human. The settings on record: for effect of heparinoid on aPC generation with high doses of PF4 and histones: conditions simulating late sepsis; for effect of heparinoid on aPC generation at low levels of histones: histones 0-10 μg/ml, heparinoid 2, 5 or 10 μg/ml; for effect of heparinoid on aPC generation at low levels of histones / effect of heparinoid on aPC generation at higher levels of histones: FIG. 7; for effect of heparinoid on aPC generation at higher levels of histones: histones >10 μg/ml; for increase of aPC generation by PF4 in absence of histones: TMCS 0.5 nM, FIG. 6A. The protocol: (§1) Generation of aPC was assayed in 96-well plates as described previously (Slungaard et al. (1994) J. Biol. Chem., 269:25549-25556; Slungaard et al. (1993) J. Clin. Invest., 91:1721-1730). Briefly, thrombomodulin (TM) was mixed with various amounts of PF4 and/or heparin for 10 minutes in assay buffer (final concentration, 20 mM Tris, 100 mM NaCl, 1 mM CaCl2, 0.1% BSA, pH 7.5). Protein C (PC) was added for an additional 10 minutes followed by addition of thrombin (IIa) at a final concentration of either 0.2 or 2 nM and 15 minutes of incubation. All incubations were done at 37° C. Final concentrations of TM and PC were 0.5 nM and 500 nM, respectively.
Generation of aPC was assayed in 96-well plates generally as described above. Briefly, rabbit or human sTMCS or sTM−CS, was mixed with various amounts of histones, PF4 and/or heparinoid for 10 minutes in assay buffer (final concentration, 20 mM Tris, 100 mM NaCl, 1 mM CaCl2, 0.1% BSA, pH 7.5). Final concentrations of TMs were 0.5-40 nM. PC (final concentration, 500 nM) was added for an additional 10 minutes followed by addition of IIa at a final concentration of 0.2 or 2 nM and then incubated for 15 minutes. All incubations were done at 37° C. The reaction was quenched with 1 mM EDTA and 100 nM hirudin. Concentrations of aPC formed in the quenched samples were inferred from initial rate measurements after the addition of 0.5 mM S2366. Initial rates of chromogenic substrate cleavage were determined by measuring absorbance at 405 nm using a ThermoMax™ Microtiter Vmax® plate reader (Molecular Devices; Sunnyvale, Calif.).

The subject of another data set is plasma aPC. In words: In vivo aPC generation measured in mouse plasma. The settings on record: for effect of heparinoid on aPC generation after histones: histones 50 mg/kg. The protocol:
Generation of aPC in vivo was assayed in plasma of mice as described (Kowalska et al. (2007) Blood 110:1903-1905). Mice were injected into the jugular vein. After 10 minutes, blood was drawn into sodium citrate/benzamidine (final concentration, 5 mM/50 mM, respectively), centrifuged for 10 minutes at 4500 g at 4° C., and plasma was frozen. Plasma aPC levels were subsequently measured by capture ELISA using antimouse aPC antibody and chromogenic substrate Spectrozyme® PCa (American Diagnostica) (Li et al. (2005) J. Thromb. Haemost., 3:1351-1359).
In vivo aPC generation was assayed in plasma of mice generally as described above. […] After 10 minutes, blood was drawn into sodium citrate/benzamidine (final concentration 5 mM/50 mM, respectively), centrifuged for 10 minutes at 5,000 rpm at 4° C. and plasma frozen. […] Some animals were pre-injected with UFH or ODSH 10 minutes before injection of histones. Plasma aPC levels were measured by capture ELISA (Li et al. (2005) J. Thromb. Haemost., 3:1351-1359) using an anti-mouse aPC antibody and chromogenic substrate Spectrozyme® PCa (American Diagnostica; Stamford, Conn.).

Another data set concerns mice. The data set can be described thus: Histone-induced lethality in mice. The format is in vivo, mouse. The settings on record: heparinoid 50 mg/kg, histones 75 mg/kg, WT mice.
A short description of data set [2]: aPTT in mouse plasma after injection of heparinoids with or without histones. The note with it: for severe prolongation of aPTT in presence of high (sub-lethal and lethal) concentrations of histones: heparinoid 50 mg/kg 10 minutes before histones, WT mice, FIG. 9B. The format is in vivo. The protocol: Blood was collected from cut tails 20 minutes after injection of heparinoids and aPTT measured in plasma. FIG. 9A: WT mice were injected with control buffer (at 0 mg/kg heparanoid concentrations) or UFH (dark squares) or ODSH (open triangles) at the concentrations indicated. FIG. 9B: WT mice were injected with control buffer (open circles) or 50 mg/kg of either UFH (black square) or ODSH (gray triangles) 10 minutes before injection of increasing concentrations of histones. N=5 mice per data point. Mean±1 SD are shown.

For a further data set, the system named is antithrombin. The settings on record: Fryer et al. (1997); cited from earlier work.
Data set [3] has as its system thrombin (IIa)/thrombomodulin (TM) complex. The data set can be described thus: In vitro aPC assay in solution, on human TM expressing HEK293 and on primary endothelial cells. The format is cell-based. The protocol:
as §1
To measure aPC formation, HEK-K293 cells stably expressing human TM on their surface cells were allowed to adhere overnight onto 24-well plates (5×10^5 cells/well) in DMEM/F12 media containing 10% FBS (Feistritzer et al. (2006) J. Biol. Chem., 281:20077-20084). Cells were washed twice with DMEM/F12 media followed by Dulbecco PBS. Various concentrations of PF4 or protamine sulfate (PRT) were incubated with cells for 10 minutes at 37° C. followed by the addition of PC and IIa, as described above. After incubation for 45 minutes, aliquots of the reaction mixture were transferred to 96-well plates and quenched by the addition of 1 mM EDTA and 100 nM hirudin. Generation of aPC was measured after the addition of 0.5 mM […] and determination of the initial rate of chromogenic substrate cleavage from absorbance measurements at 405 nm on a Thermomax™ Microtiter Vmax® plate reader (Molecular Devices).

Where [4] appears, read: WT mice, heparinoid 50 mg/kg, FIG. 8.

Consider 2-O, 3-O desulfated heparin [ODSH], for which, in data set [1], the “effect of heparinoid on aPC generation with high doses of PF4 and histones” value is listed as “enhanced aPC generation”; the “effect of heparinoid on aPC generation at low levels of histones” value is “inhibited aPC generation”; the “effect of heparinoid on aPC generation at higher levels of histones” value is on record as “restored high levels of aPC generation”. Also, the “effect of heparinoid on aPC generation after histones” value in the data set on plasma aPC (setting [4]) is on record as “suppressed detectable aPC generation”. Besides, the “aPC levels in mice pretreated with heparinoid” value in the data set with plasma aPC (heparinoid 50 mg/kg, histones 75 mg/kg, WT mice, FIG. 8) is recorded as “aPC levels were raised”. Besides, the “effect of heparinoid on histone lethality” value with mice is reported as “prevent these deaths”. In addition, the “severe prolongation of aPTT in presence of high (sub-lethal and lethal) concentrations of histones” value in data set [2] is recorded as “reversed”. The “dose required to markedly prolong the aPTT” value in data set [2] (non-histone treated mice, FIG. 9A) is on record as “the same as needed to reverse histone lethality”. Moreover, the “antithrombin activity, fold less” value in the data set with antithrombin was roughly 60 fold.
For the substance heparin, the “effect of heparin in absence of the GLA-domain of Protein C” value in data set [1] (Gla-domainless Protein C, TM+CS, FIG. 3E) was “did not have any effect”. Besides, in data set [1] (TM+CS, PF4 50 μg/ml, histones 75 μg/ml, FIGS. 3B and 3C), the “effect of heparin on histones/PF4 mediated aPC generation” value is “first enhances aPC generation before a decrease in aPC generation”. Also, the “effect of UFH on peak aPC generation from histone plus PF4” value in data set [1] (UFH 5 μg/ml, PF4 50 μg/ml, FIG. 6C) is “shifted to the right”. Besides, in data set [1], the “effect of heparinoid on aPC generation with high doses of PF4 and histones” value is given as “enhanced aPC generation”; the “effect of heparinoid on aPC generation at low levels of histones” value is reported as “inhibited aPC generation”; the “effect of heparinoid on aPC generation at higher levels of histones” value is reported as “restored high levels of aPC generation”. In addition, the “effect of heparin on aPC generation at below peak concentration of histones” value in data set [1] (histones 3 μg/ml, TM+CS, FIG. 2F) is listed as “only decreased aPC generation”. In addition, the “heparin concentration of optimal effect on aPC generation” value in data set [1] (histones present in excess (75 μg/ml), TM+CS, FIGS. 2E and 2F) was 5 μg per ml. Further, in data set [3] (PF4 12.5 μg/ml, FIG. 1B), the “effect of heparin on aPC generation at low concentrations of PF4” value is listed as “decreases aPC generation”. Further, the “effect of heparin on aPC generation at an excess of PF4” value in data set [3] (PF4 400 μg/ml, FIG. 1B) is given as “shifts the curve back to the optimal PF4 concentration”. Further, the “effect of heparin on aPC generation at lower than optimal protamine sulfate concentration” value in data set [3] (PRT 1 μg/ml, FIG. 1D) was “only decreases aPC generation”. Also, the “effect of heparin on aPC generation at higher concentrations of PRT” value in data set [3] (PRT 20 μg/ml, FIG. 1D) was “a peak and then a decrease in aPC”. The “effect of added heparin on histone curve for aPC generation” value in data set [3] (absence or presence of PF4) was “shifted the curve for aPC generation to the right”. For the same substance, in the data set on plasma aPC (setting [4]), the “effect of heparinoid on aPC generation after histones” value is given as “suppressed detectable aPC generation”. For the same substance, in the data set on mice, the “effect of heparinoid on histone lethality” value is on record as “prevent these deaths”. In data set [2] (concentrations 10 and 100-times lower than needed to reverse histone lethality, FIG. 9A), the “effect on aPTT in mice not exposed to histones” value was “marked prolongation of aPTT”. Moreover, the “severe prolongation of aPTT in presence of high (sub-lethal and lethal) concentrations of histones” value in data set [2] is “not by the UFH”.
With platelet factor 4 [PF4], in data set [1] (FIGS. 2C and 2D), the “potency on aPC activity compared with histones” value is given as “more potent than histones”. Besides, the “increase of aPC generation by PF4 in absence of histones” value in data set [1] (PF4 3 μg/ml) is on record as greater than 3 fold; in data set [1] (PF4 25 μg/ml), “around 7 fold”. Further, the “PF4 concentration at peak of bell-shape curve of aPC generation” value in data set [3] (FIG. 1A) was “around 50 μg/ml”. Further, the “maximal increase of aPC generation” value in data set [3] (at peak of biphasic curve) was roughly 6 times. The “PF4 concentration at peak of biphasic curve of aPC generation” value in data set [3] (in solution, human TM expressing HEK293, primary endothelial cells) is given as “around 25 μg/ml”. Moreover, the “effect of concurrently injected PF4 on plasma aPC” value in the data set on plasma aPC (PF4 knockout mice, PF4 5 mg/kg with IIa and histones, FIG. 4, 5 mg/kg) is listed as “further increases the generation of aPC in plasma; also recorded: higher aPC levels”.
Regarding protamine sulfate [PRT], the “shape of aPC generation versus protamine sulfate concentration” value in data set [3] (FIG. 1C) is on record as “bell-shape curve”.
